Tested on: weeds
Assay: Weed control: small scale field experiment (1 m×1 m plots)
Format: in vivo
Conditions: for herbicidal effect category, 30 days: 30 days after the treatment; for herbicidal effect category, 30 days / herbicidal effect category, 12 days: 1 m×1 m plots, sprayed at 100 liter per hectare, concentration C (% by weight) per composition; for herbicidal effect category, 12 days: 12 days after the treatment; for herbicidal effect (in words): small scale field plots, summary of Table 1
Description: The active components(s), the concentration of the dissolved/suspended active components in the aqueous composition (C, expressed as % by weight of the composition) and the mixing ratios in case of multiple components are tabulated in Table 1.
Compositions 1-A to 1-L, 2-O, 2-P and 3-Q to 3-V were prepared by dissolving water-soluble powders or pellets in water, or adding to water sparingly soluble powders, or combination of both, at the concentrations set out in Table 1, to form sprayable solutions/suspensions.
The herbicidal compositions were sprayed at rate of application of 100 liter per hectare.
The herbicidal effect was determined 5, 12 and 30 days after the treatment. To this end, five categories were defined: • A category: complete control of the weeds was achieved. • B category: severe damage was caused to the weeds. • C category: some damage was caused to the weeds. • D category: minor damage was caused to the weeds. • E category: no damage was caused to the weeds.

Row | Structure (SMILES) | herbicidal effect category, 30 days | herbicidal effect category, 12 days | herbicidal effect (in words)
1 | [Na+].[OH-] [Composition 1-A, NaOH] | B+ |  | 
2 | O=C([O-])O.[Na+] [Composition 1-C, NaHCO3] |  | D+ | 
3 | [K+].[OH-] [Composition 1-D, KOH] | B+ |  | 
4 | O=C([O-])O.[K+] [Composition 1-F, KHCO3] | C+ |  | 
5 | [Ca+2].[OH-].[OH-] [Composition 1-G, Ca(OH)2] | D+ |  | poor activity
6 | O=C([O-])O.O=C([O-])O.[Ca+2] [Composition 1-I, Ca(HCO3)2] |  | D+ | poor activity
